# Tests used:
# Experiment in all cases: pTyr-Var library bacterial peptide display kinase screen (enrichment scores)
# [1] = tested on: Fer kinase domain; type: biochemical, mouse; details: sheet "Fer";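 also: log2 fold change in enrichment of variant over reference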
# [2] = tested on: EPHB2 kinase domain; type: biochemical, human; details: sheet EPHB2; effect of variant peptide relative to its reference peptide in the pTyr-Var library screen (enrichment scores);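 also: log2 fold change in enrichment of variant over reference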
# [3] = target: c-Src kinase domain (Homo sapiens, UniProt P12931); type: biochemical; details: sheet "Src";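 also: log2 fold change in enrichment of variant over reference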
# [4] = tested on: EPHB1 kinase domain; type: biochemical, human; details: for Screen: sheet EPHB1, effect of the variant peptide relative to its reference peptide in the pTyr-Var library screen (enrichment scores); for Screen (variant relative to reference peptide, measured in the pTyr-Var library screen): sheet "EPHB1", variant seq vs reference seq, bacterial peptide display enrichment
# [5] = target: T1, c-Abl kinase domain (Mus musculus, UniProt P00520); type: biochemical; details: fig5-data2, sheet "Abl"; Screen for the variant/reference peptide pair, pTyr-Var library;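 also: log2 fold change in enrichment of variant over reference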
# T1 sequence (P00520 242-493 limits assumed): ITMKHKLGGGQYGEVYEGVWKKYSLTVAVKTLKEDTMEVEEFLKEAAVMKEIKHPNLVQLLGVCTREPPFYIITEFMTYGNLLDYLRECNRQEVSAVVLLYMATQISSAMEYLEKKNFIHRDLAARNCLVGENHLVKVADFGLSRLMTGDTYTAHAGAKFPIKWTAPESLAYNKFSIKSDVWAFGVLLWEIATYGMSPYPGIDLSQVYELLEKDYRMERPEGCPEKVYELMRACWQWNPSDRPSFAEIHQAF
# [6] = value of the variant peptide against its reference peptide in the pTyr-Var library screen with Fer
# [7] = effect of the variant peptide relative to its reference peptide in the pTyr-Var library screen
# [8] = variant peptide relative to its reference peptide, pTyr-Var library screen enrichment
# [9] = variant peptide versus its reference peptide in the pTyr-Var library screen
Sequence,"Screen [1, 6]",Screen [2],"Screen [3, 7]",Screen [4],Screen [5],"Screen [1, 8]","Screen [3, 9]","Screen (variant relative to reference peptide, measured in the pTyr-Var library screen) [4]"
SRDPFYEMLTA [CYTH1_Y382_A386T],-0.1692,0.7334,0.1014,0.4954,,,,
SSSAIYDNPDL [DCP1B_Y191_N195D],-0.4908,-0.486,-1.087,-0.6114,1.925,,,
TLSGTYQFIIA [FOXL2_Y81_I80T_YF],-3.428,-3.51,-2.746,-3.534,,,,
VARAVYQAVLS [SMG1_Y549_H546R],,-3.744,,,,-2.673,-1.809,-4.046
VDGSVYELHPS [GCK_Y413_K414E],4.734,2.546,1.442,2.239,,,,
VFLGAYDHFLP [SLC22A5_Y486_R488H_YF],,1.125,,,,2.03,-0.3296,0.9383
VKANTYENFWP [GATM_Y100_K102N_YF],1.784,2.516,0.5982,2.281,,,,
